The record followed here is patent US5561140A, “Substituted alicyclic amine-containing macrocyclic immunomodulators” (Abbott Laboratories, priority 1995, dated 1996).

For this test, the system named is human mixed lymphocyte reaction (MLR). Nature of the test: human mixed lymphocyte reaction (MLR) assay of immunosuppressant activity. In kind it is cell-based. Particulars: Table 1. As to the method:
The immunosuppressant activity of the compounds of the present invention was determined using the human mixed lymphocyte reaction (MLR) assay described by Kino, T. et al. in Transplantation Proceedings XIX(5):36-39, Suppl. 6 (1987), incorporated herein by reference.
The term IC50 denotes the concentration at which inhibition is half-maximal. A higher IC50 goes with weaker potency. `CC[C@@H]1/C=C(\C)C[C@H](C)C[C@H](OC)[C@H]2O[C@@](O)(C(=O)C(=O)N3CCCC[C@H]3C(=O)O[C@H](/C(C)=C/[C@@H]3CCC(N4CCC[C@@H]4CO)[C@H](OC)C3)[C@H](C)[C@@H](O)CC1=O)[C@H](C)C[C@@H]2OC` (single isomer, unassigned) [Example 76] yielded a concentration for half-maximal inhibition (IC50) of less than 1 µM.

`CC[C@@H]1/C=C(\C)C[C@H](C)C[C@H](OC)[C@H]2O[C@@](O)(C(=O)C(=O)N3CCCC[C@H]3C(=O)O[C@H](/C(C)=C/[C@@H]3CCC(N4CCC[C@H]4CO)[C@H](OC)C3)[C@H](C)[C@@H](O)CC1=O)[C@H](C)C[C@@H]2OC` (single isomer, unassigned) [Example 109] had an IC50 of less than 1 µM. In the case of `CC[C@@H]1/C=C(\C)C[C@H](C)C[C@H](OC)[C@H]2O[C@@](O)(C(=O)C(=O)N3CCCC[C@H]3C(=O)O[C@H](/C(C)=C/[C@@H]3CCC(N4CCN(C)CC4)[C@H](OC)C3)[C@H](C)[C@@H](O)CC1=O)[C@H](C)C[C@@H]2OC` (stereo partly shown) [Example 5], the IC50 is less than 1 µM. To `CC[C@@H]1/C=C(\C)C[C@H](C)C[C@H](OC)[C@H]2O[C@@](O)(C(=O)C(=O)N3CCCC[C@H]3C(=O)O[C@H](/C(C)=C/[C@@H]3CCC(N4CCN(Cc5ccccc5)CC4)[C@H](OC)C3)[C@H](C)[C@@H](O)CC1=O)[C@H](C)C[C@@H]2OC` (stereo partly shown) [Example 7] belongs less than 1 µM; to `CC[C@@H]1/C=C(\C)C[C@H](C)C[C@H](OC)[C@H]2O[C@@](O)(C(=O)C(=O)N3CCCC[C@H]3C(=O)O[C@H](/C(C)=C/[C@@H]3CCC(N4CCN(c5ccccc5)CC4)[C@H](OC)C3)[C@H](C)[C@@H](O)CC1=O)[C@H](C)C[C@@H]2OC` (stereo partly shown) [Example 9], less than 1 µM; to `CC[C@@H]1/C=C(\C)C[C@H](C)C[C@H](OC)[C@H]2O[C@@](O)(C(=O)C(=O)N3CCCC[C@H]3C(=O)O[C@H](/C(C)=C/[C@@H]3CCC(N4CCN(C(=O)OC(C)(C)C)CC4)[C@H](OC)C3)[C@H](C)[C@@H](O)CC1=O)[C@H](C)C[C@@H]2OC` (stereo partly shown) [Example 11], less than 1 µM. To `CCC1C=C(C)CC(C)CC(OC)C2OC(O)(C(=O)C(=O)N3CCCCC3C(=O)OC(C(C)=CC3CCC(N4CCN(Cc5ccc([N+](=O)[O-])cc5)CC4)C(OC)C3)C(C)C(O)CC1=O)C(C)CC2OC` (stereo not shown) [Example 12] belongs less than 1 µM; to `CCC1C=C(C)CC(C)CC(OC)C2OC(O)(C(=O)C(=O)N3CCCCC3C(=O)OC(C(C)=CC3CCC(N4CCN(Cc5ccc6ccccc6c5)CC4)C(OC)C3)C(C)C(O)CC1=O)C(C)CC2OC` (stereo not shown) [Example 13], less than 1 µM. To `CC[C@@H]1/C=C(\C)C[C@H](C)C[C@H](OC)[C@H]2O[C@@](O)(C(=O)C(=O)N3CCCC[C@H]3C(=O)O[C@H](/C(C)=C/[C@@H]3CCC(N4CCCCC4)[C@H](OC)C3)[C@H](C)[C@@H](O)CC1=O)[C@H](C)C[C@@H]2OC` (stereo partly shown) [Example 14] belongs less than 1 µM; to `CC[C@@H]1/C=C(\C)C[C@H](C)C[C@H](OC)[C@H]2O[C@@](O)(C(=O)C(=O)N3CCCC[C@H]3C(=O)O[C@H](/C(C)=C/[C@@H]3CCC(N4CCN(C=O)CC4)[C@H](OC)C3)[C@H](C)[C@@H](O)CC1=O)[C@H](C)C[C@@H]2OC` (stereo partly shown) [Example 15], less than 1 µM. `CC[C@@H]1/C=C(\C)C[C@H](C)C[C@H](OC)[C@H]2O[C@@](O)(C(=O)C(=O)N3CCCC[C@H]3C(=O)O[C@H](/C(C)=C/[C@@H]3CCC(N4CCC5(CC4)OCCO5)[C@H](OC)C3)[C@H](C)[C@@H](O)CC1=O)[C@H](C)C[C@@H]2OC` (stereo partly shown) [Example 16] had an IC50 of less than 1 µM.

`CC[C@@H]1/C=C(\C)C[C@H](C)C[C@H](OC)[C@H]2O[C@@](O)(C(=O)C(=O)N3CCCC[C@H]3C(=O)O[C@H](/C(C)=C/[C@@H]3CCC(N4CCN(CCO)CC4)[C@H](OC)C3)[C@H](C)[C@@H](O)CC1=O)[C@H](C)C[C@@H]2OC` (stereo partly shown) [Example 17]: the IC50 was less than 1 µM. Next, `CC[C@@H]1/C=C(\C)C[C@H](C)C[C@H](OC)[C@H]2O[C@@](O)(C(=O)C(=O)N3CCCC[C@H]3C(=O)O[C@H](/C(C)=C/[C@@H]3CCC(N4CCOCC4)[C@H](OC)C3)[C@H](C)[C@@H](O)CC1=O)[C@H](C)C[C@@H]2OC` (stereo partly shown) [Example 18]: less than 1 µM; `CC[C@@H]1/C=C(\C)C[C@H](C)C[C@H](OC)[C@H]2O[C@@](O)(C(=O)C(=O)N3CCCC[C@H]3C(=O)O[C@H](/C(C)=C/[C@@H]3CCC(N4CCN(CCOCCO)CC4)[C@H](OC)C3)[C@H](C)[C@@H](O)CC1=O)[C@H](C)C[C@@H]2OC` (stereo partly shown) [Example 19]: less than 1 µM.

For `CC[C@@H]1/C=C(\C)C[C@H](C)C[C@H](OC)[C@H]2O[C@@](O)(C(=O)C(=O)N3CCCC[C@H]3C(=O)O[C@H](/C(C)=C/[C@@H]3CCC(N4CCN(c5ccccn5)CC4)[C@H](OC)C3)[C@H](C)[C@@H](O)CC1=O)[C@H](C)C[C@@H]2OC` (stereo partly shown) [Example 20], the IC50 was less than 1 µM. Regarding `CC[C@@H]1/C=C(\C)C[C@H](C)C[C@H](OC)[C@H]2O[C@@](O)(C(=O)C(=O)N3CCCC[C@H]3C(=O)O[C@H](/C(C)=C/[C@@H]3CCC(N4CCN(c5ncccn5)CC4)[C@H](OC)C3)[C@H](C)[C@@H](O)CC1=O)[C@H](C)C[C@@H]2OC` (stereo partly shown) [Example 21], the IC50 is less than 1 µM.

`CC[C@@H]1/C=C(\C)C[C@H](C)C[C@H](OC)[C@H]2O[C@@](O)(C(=O)C(=O)N3CCCC[C@H]3C(=O)O[C@H](/C(C)=C/[C@@H]3CCC(N4CCNCC4)[C@H](OC)C3)[C@H](C)[C@@H](O)CC1=O)[C@H](C)C[C@@H]2OC` (stereo partly shown) [Example 22] showed an IC50 of less than 1 µM. Compound `CC[C@@H]1/C=C(\C)C[C@H](C)C[C@H](OC)[C@H]2O[C@@](O)(C(=O)C(=O)N3CCCC[C@H]3C(=O)O[C@H](/C(C)=C/[C@@H]3CCC(N4CCN(CC(=O)N5CCCC5)CC4)[C@H](OC)C3)[C@H](C)[C@@H](O)CC1=O)[C@H](C)C[C@@H]2OC` (stereo partly shown) [Example 27] gave an IC50 of less than 1 µM.

The compound `CC[C@@H]1/C=C(\C)C[C@H](C)C[C@H](OC)[C@H]2O[C@@](O)(C(=O)C(=O)N3CCCC[C@H]3C(=O)O[C@H](/C(C)=C/[C@@H]3CCC(N4CCN(CC(=O)N5CCOCC5)CC4)[C@H](OC)C3)[C@H](C)[C@@H](O)CC1=O)[C@H](C)C[C@@H]2OC` (stereo partly shown) [Example 28] registered an IC50 of less than 1 µM. To `CC[C@@H]1/C=C(\C)C[C@H](C)C[C@H](OC)[C@H]2O[C@@](O)(C(=O)C(=O)N3CCCC[C@H]3C(=O)O[C@H](/C(C)=C/[C@@H]3CCC(N4CCN(C5CCCC5)CC4)[C@H](OC)C3)[C@H](C)[C@@H](O)CC1=O)[C@H](C)C[C@@H]2OC` (stereo partly shown) [Example 31] belongs less than 1 µM; to `CCC1C=C(C)CC(C)CC(OC)C2OC(O)(C(=O)C(=O)N3CCCCC3C(=O)OC(C(C)=CC3CCC(N4CCN(Cc5ccc6c(c5)OCO6)CC4)C(OC)C3)C(C)C(O)CC1=O)C(C)CC2OC` (stereo not shown) [Example 38], less than 1 µM; to `CC[C@@H]1/C=C(\C)C[C@H](C)C[C@H](OC)[C@H]2O[C@@](O)(C(=O)C(=O)N3CCCC[C@H]3C(=O)O[C@H](/C(C)=C/[C@@H]3CCC(N4CCN(c5ccc(C(C)=O)cc5)CC4)[C@H](OC)C3)[C@H](C)[C@@H](O)CC1=O)[C@H](C)C[C@@H]2OC` (stereo partly shown) [Example 39], less than 1 µM.

Compound `CC[C@@H]1/C=C(\C)C[C@H](C)C[C@H](OC)[C@H]2O[C@@](O)(C(=O)C(=O)N3CCCC[C@H]3C(=O)O[C@H](/C(C)=C/[C@@H]3CCC(N4CCC(N5CCCC5)CC4)[C@H](OC)C3)[C@H](C)[C@@H](O)CC1=O)[C@H](C)C[C@@H]2OC` (stereo partly shown) [Example 44] gave an IC50 of less than 1 µM. To `CCOC(=O)N1CCN(C2CC[C@@H](/C=C(\C)[C@H]3OC(=O)[C@@H]4CCCCN4C(=O)C(=O)[C@]4(O)O[C@H]([C@@H](OC)C[C@@H](C)C/C(C)=C/[C@@H](CC)C(=O)C[C@H](O)[C@H]3C)[C@@H](OC)C[C@H]4C)C[C@H]2OC)CC1` (stereo partly shown) [Example 58] belongs less than 1 µM; to `CC[C@@H]1/C=C(\C)C[C@H](C)C[C@H](OC)[C@H]2O[C@@](O)(C(=O)C(=O)N3CCCC[C@H]3C(=O)O[C@H](/C(C)=C/[C@@H]3CCC(N4CCN(C(C)=O)CC4)[C@H](OC)C3)[C@H](C)[C@@H](O)CC1=O)[C@H](C)C[C@@H]2OC` (stereo partly shown) [Example 61], less than 1 µM.

`CC[C@@H]1/C=C(\C)C[C@H](C)C[C@H](OC)[C@H]2O[C@@](O)(C(=O)C(=O)N3CCCC[C@H]3C(=O)O[C@H](/C(C)=C/[C@@H]3CCC(N4CCN(CC(=O)NC(C)C)CC4)[C@H](OC)C3)[C@H](C)[C@@H](O)CC1=O)[C@H](C)C[C@@H]2OC` (stereo partly shown) [Example 62] returned an IC50 of less than 1 µM. Next, `CC[C@@H]1/C=C(\C)C[C@H](C)C[C@H](OC)[C@H]2O[C@@](O)(C(=O)C(=O)N3CCCC[C@H]3C(=O)O[C@H](/C(C)=C/[C@@H]3CCC(N4CCC(O)CC4)[C@H](OC)C3)[C@H](C)[C@@H](O)CC1=O)[C@H](C)C[C@@H]2OC` (stereo partly shown) [Example 67]: less than 1 µM; `CC[C@@H]1/C=C(\C)C[C@H](C)C[C@H](OC)[C@H]2O[C@@](O)(C(=O)C(=O)N3CCCC[C@H]3C(=O)O[C@H](/C(C)=C/[C@@H]3CCC(N4CCCCC4CO)[C@H](OC)C3)[C@H](C)[C@@H](O)CC1=O)[C@H](C)C[C@@H]2OC` (stereo partly shown) [Example 105]: less than 1 µM. Next, `CC[C@@H]1/C=C(\C)C[C@H](C)C[C@H](OC)[C@H]2O[C@@](O)(C(=O)C(=O)N3CCCC[C@H]3C(=O)O[C@H](/C(C)=C/[C@@H]3CCC(N4CCCC(CO)C4)[C@H](OC)C3)[C@H](C)[C@@H](O)CC1=O)[C@H](C)C[C@@H]2OC` (stereo partly shown) [Example 106]: less than 1 µM; `CC[C@@H]1/C=C(\C)C[C@H](C)C[C@H](OC)[C@H]2O[C@@](O)(C(=O)C(=O)N3CCCC[C@H]3C(=O)O[C@H](/C(C)=C/[C@@H]3CCC(N4CCCCC4CCO)[C@H](OC)C3)[C@H](C)[C@@H](O)CC1=O)[C@H](C)C[C@@H]2OC` (stereo partly shown) [Example 107]: less than 1 µM; `CC[C@@H]1/C=C(\C)C[C@H](C)C[C@H](OC)[C@H]2O[C@@](O)(C(=O)C(=O)N3CCCC[C@H]3C(=O)O[C@H](/C(C)=C/[C@@H]3CCC(N4CCCC(O)C4)[C@H](OC)C3)[C@H](C)[C@@H](O)CC1=O)[C@H](C)C[C@@H]2OC` (stereo partly shown) [Example 108]: less than 1 µM.
